Patent US20110060000A1, “ACRIDINE ANALOGS IN THE TREATMENT OF GLIOMAS” (priority 2009, published 2011)

Key:
astrocytes = test: [Ca2+]i measurement in astrocytes; format: cell-based, rat
Description: (§1) (Statistical analysis it is shown in the inset. Values at the peak of the response have been analyzed using ANOVA followed by T-test, ** indicate P<0.01.).
(§2) Ca^2+ mobilization from ER was caused using an agonist acting via inositol trisphosphate elevation, mimicking physiological responses. In these conditions the dynamics of Ca^2+ transients were observe in these two cell lines. It appears evident that the plateau phase in C6 is consistently larger than in astrocytes.
(§3) Panel A: Challenge of astrocytes with ATP show the unchanged typical spike and plateau response. Panel B: In C6 an oscillatory pattern is readily detectable in response to treatment with TUN.
Tools and protocols have been developed to cleanly observe capacitative Ca^2+ entry (CCE), the phenomenon that allows the replenishment of intracellular Ca^2+ (ICS) stores and make quantitative and qualitative assessments. In particular, in astrocytes, capacitative Ca^2+ entry happens in absence of cytoplasmic Ca^2+ concentration ([Ca^2+]i) elevation (Grimaldi; 2006)(FIG. 1). […]
(§4) This phase is dependent on the balance of Ca^2+ influx triggered by store depletion and the reuptake in the ER due to SERCA activity. […] To investigate the role of influx triggered by ICS depletion, CCE was analyzed following THAP-induced depletion of ICS. […]

caspase 12 [1] = test: Procaspase 12 cleavage in C6; format: cell-based, rat
Method: (§5) Cells were treated with the agents as indicated in the x axis. Subsequently cells were harvested and protein was extracted and then separated via SDS-PAGE and immunoblotted. The arrow highlights the 45 kDa band that results from cleavage of procaspase 12 and corresponding to the active caspase.
(§6) Thereafter, cells were harvested and protein extracted. Procaspase 12 band at 65 kDa was identified. In some of the treatments, the active product at 45 kDa was also detected. […] Conversely, in C6, higher GRP78 levels and the cell environment reflect significant caspase activation. […] Caspase activation in ERSR conditions was also confirmed with a TUNEL based apoptosis detection system in C6. C6 were treated with THAP for 24 hours and thereafter processed for TUNEL accordingly to manufacturer instructions. Staurosporin, a well known inducer of apoptosis in glial cells, was also included as a positive control. High resolution images of the experiments were acquired and image morphometric analysis was performed to determine quantitative parameters of the staining as previously described (Pascale et al., 2004, “Translocation of protein kinase C-betaII in astrocytes requires organized actin cytoskeleton and is not accompanied by synchronous RACK1 relocation.” Glia 46(2): 169-82). […]

GRP78 [2] = test: GRP78 protein expression (SDS-PAGE, immunoblot) in astrocytes; format: cell-based, rat; settings: for GRP78 levels in astrocytes after challenge: brief exposure (8 h), FIG. 11; for GRP78 protein expression in astrocytes: graded concentrations, THAP 24 hours, TUN 8 hours
Method: Astrocytes and C6 were exposed to graded concentration of THAP as indicated in the captions for 24 hours. Thereafter, protein were extracted and run on a SDS-PAGE and immunoblotted with an anti-GRP78 antibody. Filters were exposed to ECL and films were impressed and developed (Panel B). Films were digitalized using a high resolution scanner and analyzed used imageJ (NIH). Densitometric values were averaged and plotted in the graph (Panel A). Loading conditions were checked using GAPDH housekeeping gene.
Astrocytes and C6 were exposed to TUN for 8 hours at concentrations ranging from 1.25 μg/ml to 10 μg/ml. Proteins were extracted, separated on a SDS-PAGE and immunoblotted. Filters were exposed to ECL and used to impress films (Panel B). Developed films were subsequently digitized with a high resolution scanner and analyzed with the software ImageJ (NIH). Densitometric values were averaged and plotted in the graph (Panel A).
(§7) Cells were treated as specified in the graph labeling. It is evident that glioma cells have enhanced GRP78 expression than astrocytes regardless of the challenging agent. N.T.=untreated; D=DMSO; T=TUN; Th=THAP.

GRP78 [3] = test: GRP78 protein expression in U87-MG; format: cell-based, human; settings: brief exposure (8 h), FIG. 11
Method: as §7
Also it has been speculated that the increased higher constitutive expression in glioma cells determines their resilience to the hostile growth environment, to pharmacological treatment and to radiotherapy. However, these studies were performed comparing human astrocytes from repositories to several human malignant cell lines both commercially available or from patients. […] Therefore, in light of the preliminary observations, experiments were conducted in order to further investigate the phenomenon with the aim to better understand it. Experiments were performed using primary rat astrocytes and their glioma counterpart, the C6 cells; also, human glioma cells, such as U87-MG, were used. The latter have been widely used in assessing human glioma properties. Unstimulated expression levels of GRP78 were compared in these cells. In FIG. 11 it is possible to view that unstimulated GRP78 expression in these three cell types is very low.

caspase 12 [4] = test: Procaspase 12 cleavage in astrocytes; format: cell-based, rat
Method: as §5, §6

C6 = test: [Ca2+]i measurement in C6; format: cell-based, rat
Description: as §1, §2, §3
Tools and protocols have been developed to cleanly observe capacitative Ca^2+ entry (CCE), the phenomenon that allows the replenishment of intracellular Ca^2+ (ICS) stores and make quantitative and qualitative assessments. In particular, in astrocytes, capacitative Ca^2+ entry happens in absence of cytoplasmic Ca^2+ concentration ([Ca^2+]i) elevation (Grimaldi; 2006)(FIG. 1). […] The study was designed to investigate if there was a difference between astrocytes and glial cancer cells in this distinctive homeostatic pattern. The findings presented in this study, indicate that there are striking differences between glial cells and their cancer counterpart. The model utilizes rat cells but the observations extend and apply to human glioma cells as well. When the responses of normal astrocytes and C6 cells to thapsigargin (THAP), an agent able to block SERCA, therefore causing the release of Ca^2+ from the ER, were compared it was evident that C6 was more sensitive to the THAP (FIG. 2). However, the difference can be ascribed to one of many possibilities. […]
as §4

Compound | [Ca2+]i elevation in astrocytes (astrocytes; 2 μM THAP) | activation of caspase 12 (45 kDa active product) in C6 (caspase 12 [1]) | GRP78 levels in astrocytes after challenge (GRP78 [2]) | GRP78 protein expression in astrocytes (GRP78 [2]) | GRP78 expression in U87-MG after challenge (GRP78 [3]) | activation of caspase 12 in astrocytes (caspase 12 [4]) | [Ca2+]i elevation in C6 (C6; 2 μM THAP) | Ca2+ transients in astrocytes after TUN pretreatment (astrocytes; challenge with ATP) | Ca2+ transients in C6 after TUN pretreatment (C6; challenge with ATP)
C/C=C(/C)C(=O)O[C@H]1C(C)=C2[C@H]([C@@H]1OC(=O)CCCCCCC)[C@@](C)(OC(C)=O)C[C@H](OC(=O)CCC)[C@@]1(O)[C@H]2OC(=O)[C@@]1(C)O [THAP, thapsigargin] | caused elevation of [Ca^2+]i | significant activation of caspase 12 | always significantly lower than levels reached in C6 and U87-MG | increased GRP78 expression | enhanced significantly | completely unresponsive | significantly higher than in astrocytes |  | 
tunicamycin |  | significant activation of caspase 12 | always significantly lower than levels reached in C6 and U87-MG | concentration related elevation of GRP78 protein expression | enhanced significantly | completely unresponsive |  | transients were not changed | appearance of [Ca^2+]i oscillations at high frequency and high amplitude
